Read-outs that look alike come from different tables or passages of the source.
Experiments:
[1] = system: RPE-Neo or RPE-MYC cells; experiment: MTT assay of cellular proliferation; type: cell-based; details: compounds at 20 nM to 20 μM; read-out: Min. Effective conc. for Proliferative arrest (>50%)
In short: (§1)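 RPE-Neo, RPE-MYC or RPE-MYC EGFP-Histone 2B cells exposed to compound at 20 nM to 20 μM, 18-24 h after plating. Mitotic arrest or DNA-content change imaged at 24, 48 or 72 h; proliferation by MTT. Values binned A (1 nM–1.0 μM), B (>1.00–10.0 μM), C (>10.0–30.0 μM), D (>30.0–<1000 μM).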

[2] = system: RPE-Neo or RPE-MYC or RPE-MYC expressing an EGFP-Histone 2B fusion protein; experiment: Phenotypic screening assay (arrest in mitosis or change in DNA content, IN-Cell Analyzer); type: cell-based; details: compounds at 20 nM to 20 μM, analysed 24, 48 or 72 hours after initiation of treatment
In short: as §1

[3] = read-out: Min. Effective conc. for Along with Cell Death
[4] = read-out: Min. Effective conc. for Mitotic Arrest (>5%)
[5] = read-out: Min. Effective conc. for Polyploidy (≥5%)

| SMILES | minimal effective concentration [1] | minimal effective concentration [2, 3] | minimal effective concentration [2, 4] | minimal effective concentration [2, 5] |
| --- | --- | --- | --- | --- |
| Cc1ccc(CN2C(=O)CC(c3nnc(C4CC4)o3)=C(Br)c3cccc(C)c32)cc1F [Compound 20-18, 5-bromo-4-(5-cyclopropyl-1,3,4-oxadiazol-2-yl)-1-(3-fluoro-4-methylbenzyl)-9-methyl-1,3-dihydro-2H-benzo[b]azepin-2-one] | 0.001 to 1 µM | 0.001 to 1 µM | 0.001 to 1 µM | 0.001 to 1 µM |
| Cc1ccc(CN2C(=O)CC(c3ccon3)=C(Br)c3ccccc32)cc1F [Compound 13-2] | 0.001 to 1 µM | 0.001 to 1 µM | 0.001 to 1 µM | 0.001 to 1 µM |
| COC1=C(c2cnco2)CC(=O)N(Cc2ccc(C)c(F)c2)c2ccccc21 [Compound 26-1, 1-(3-fluoro-4-methylbenzyl)-5-methoxy-4-(oxazol-5-yl)-1,3-dihydro-2H-benzo[b]azepin-2-one] | 1 to 10 µM | 1 to 10 µM | 1 to 10 µM | 1 to 10 µM |
| Cc1ccc(CN2C(=O)CC(c3nnc(C4CC4)o3)=C(Br)c3c(F)cccc32)cc1F [Compound 20-16, 5-bromo-4-(5-cyclopropyl-1,3,4-oxadiazol-2-yl)-6-fluoro-1-(3-fluoro-4-methylbenzyl)-1,3-dihydro-2H-benzo[b]azepin-2-one] | 0.001 to 1 µM | 0.001 to 1 µM | 0.001 to 1 µM | 0.001 to 1 µM |
| COc1ccc2c(c1)N(Cc1ccc(C)c(F)c1)C(=O)CC(c1cnco1)=C2Br [Compound 8-6, 5-bromo-1-(3-fluoro-4-methylbenzyl)-8-methoxy-4-(oxazol-5-yl)-1,3-dihydro-2H-benzo[b]azepin-2-one] | 0.001 to 1 µM | 0.001 to 1 µM | 0.001 to 1 µM | 0.001 to 1 µM |
| C#CC1=C(c2nnc(C3CC3)o2)CC(=O)N(Cc2ccc(C)c(F)c2)c2ccccc21 [Compound 20-32, 4-(5-cyclopropyl-1,3,4-oxadiazol-2-yl)-5-ethynyl-1-(3-fluoro-4-methylbenzyl)-1,3-dihydro-2H-benzo[b]azepin-2-one] | 0.001 to 1 µM | 0.001 to 1 µM | 0.001 to 1 µM | 0.001 to 1 µM |
| Cc1ccc(S(=O)(=O)N2CCC(c3nnc(C4CC4)o3)=C(Br)c3ccccc32)cc1 [Compound 34-4, 2-(5-bromo-1-tosyl-2,3-dihydro-1H-benzo[b]azepin-4-yl)-5-cyclopropyl-1,3,4-oxadiazole] | 1 to 10 µM | 1 to 10 µM | 1 to 10 µM | 1 to 10 µM |
| Cc1ccc(CN2C(=O)CC(COCC3CCCO3)=C(Br)c3ccccc32)cc1F (stereo not shown) [Compound 44-4, 5-bromo-1-(3-fluoro-4-methylbenzyl)-4-(((tetrahydrofuran-2-yl)methoxy)methyl)-1,3-dihydro-2H-benzo[b]azepin-2-one] | 1 to 10 µM | 1 to 10 µM | 1 to 10 µM | 1 to 10 µM |
| COC1=C(CO)CC(=O)N(Cc2ccc(C)c(F)c2)c2ccccc21 [Compound 27-1, 1-(3-fluoro-4-methylbenzyl)-4-(hydroxymethyl)-5-methoxy-1,3-dihydro-2H-benzo[b]azepin-2-one] | 30 to 1000 µM | 30 to 1000 µM | 30 to 1000 µM | 30 to 1000 µM |
| COc1ccc(S(=O)(=O)N2CCC(c3nnc(C4CC4)o3)=C(Br)c3ccccc32)cc1F [Compound 34-3, 2-(5-bromo-1-((3-fluoro-4-methoxyphenyl)sulfonyl)-2,3-dihydro-1H-benzo[b]azepin-4-yl)-5-cyclopropyl-1,3,4-oxadiazole] | 1 to 10 µM | 1 to 10 µM | 1 to 10 µM | 1 to 10 µM |
| Cc1ccc(CN2C(=O)CC(c3nnc(C4CC4)o3)=C(C3CC3)c3ccccc32)cc1F [Compound 20-29] | 1 to 10 µM | 1 to 10 µM | 1 to 10 µM | 1 to 10 µM |
| Cc1ccc(CN2C(=O)CC(COC3CCOC3)=C(Br)c3ccccc32)cc1F (stereo not shown) [Compound 44-1, 5-bromo-1-(3-fluoro-4-methylbenzyl)-4-(((tetrahydrofuran-3-yl)oxy)methyl)-1,3-dihydro-2H-benzo[b]azepin-2-one] | 0.001 to 1 µM | 0.001 to 1 µM | 0.001 to 1 µM | 0.001 to 1 µM |
| Cc1ccc(CN2C(=O)CC(c3nnc(C4CC4)o3)=C(Br)c3ccc(C(N)=O)cc32)cc1F [Compound 20-22, 5-bromo-4-(5-cyclopropyl-1,3,4-oxadiazol-2-yl)-1-(3-fluoro-4-methylbenzyl)-2-oxo-2,3-dihydro-1H-benzo[b]azepine-8-carboxamide] | 0.001 to 1 µM | 0.001 to 1 µM | 0.001 to 1 µM | 0.001 to 1 µM |
| [2H]C([2H])(c1ccc(C)c(F)c1)N1C(=O)CC(c2nnc(C3CC3)o2)=C(Br)c2ccccc21 [Compound 20-27, 5-bromo-4-(5-cyclopropyl-1,3,4-oxadiazol-2-yl)-1-((3-fluoro-4 methylphenyl)methyl-d2)-1,3-dihydro-2H-benzo[b]azepin-2-one] | 0.001 to 1 µM | 0.001 to 1 µM | 0.001 to 1 µM | 0.001 to 1 µM |
| Cc1nnc(C2=C(Br)c3ccccc3N(Cc3ccc(C)c(F)c3)C(=O)C2)o1 [Compound 20-2, 5-bromo-1-(3-fluoro-4-methylbenzyl)-4-(5-methyl-1,3,4-oxadiazol-2-yl)-1,3-dihydro-2H-benzo[b]azepin-2-one] | 0.001 to 1 µM | 0.001 to 1 µM | 0.001 to 1 µM | 0.001 to 1 µM |
| COCCOc1ccc2c(c1)N(Cc1ccc(C)c(F)c1)C(=O)CC(c1cnco1)=C2Cl [Compound 8-9] | 0.001 to 1 µM | 0.001 to 1 µM | 0.001 to 1 µM | 0.001 to 1 µM |
| Cc1ccc(CN2C(=O)CC(c3nnc(C4CC4)o3)=C(Br)c3ccc(Cl)cc32)cc1F [Compound 20-9, 5-bromo-8-chloro-4-(5-cyclopropyl-1,3,4-oxadiazol-2-yl)-1-(3-fluoro-4-methylbenzyl)-1,3-dihydro-2H-benzo[b]azepin-2-one] | 0.001 to 1 µM | 0.001 to 1 µM | 0.001 to 1 µM | 0.001 to 1 µM |
| Cc1ccc(CN2C(=O)CC(c3cnco3)=C(Br)c3ccc(Br)cc32)cc1F [Compound 8-3, 5,8-dibromo-1-(3-fluoro-4-methylbenzyl)-4-(oxazol-5-yl)-1,3-dihydro-2H-benzo[b]azepin-2-one] | 0.001 to 1 µM | 0.001 to 1 µM | 0.001 to 1 µM | 0.001 to 1 µM |
| Cc1ccc(CN2C(=O)CC(C=O)=C(Cl)c3ccccc32)cc1F [Compound 7-1, 5-chloro-1-(3-fluoro-4-methylbenzyl)-2-oxo-2,3-dihydro-1H-benzo[b]azepine-4-carbaldehyde] | 0.001 to 1 µM | 0.001 to 1 µM | 0.001 to 1 µM | 0.001 to 1 µM |

From US20250011289A1, “1H-BENZO[B]AZEPIN-2(3H)-ONE COMPOUNDS, COMPOSITIONS AND METHODS OF TREATING CANCER” (Chengdu Anticancer Bioscience, Ltd., priority 2021, published 2025)
